Experimental data reported in patent US5969017A, “Methods of treating or preventing cardiac arrhythmia” (Merck & Co., Inc., priority 1997, dated 1999).
Entries after “also recorded” stand apart in the source; their conditions may differ. Where two headings read alike, the source gives them in different places.

Target: T1, hKv1.5 expressed in Chinese Hamster Ovary (CHO) cells (Homo sapiens, UniProt P22460)
T1 construct: expressed in transfected cells; host or cells: CHO-K1 cells (CHOKI in source), pcDNAI/Neo plasmid, G418-selected clones
T1 sequence (P22460 whole entry): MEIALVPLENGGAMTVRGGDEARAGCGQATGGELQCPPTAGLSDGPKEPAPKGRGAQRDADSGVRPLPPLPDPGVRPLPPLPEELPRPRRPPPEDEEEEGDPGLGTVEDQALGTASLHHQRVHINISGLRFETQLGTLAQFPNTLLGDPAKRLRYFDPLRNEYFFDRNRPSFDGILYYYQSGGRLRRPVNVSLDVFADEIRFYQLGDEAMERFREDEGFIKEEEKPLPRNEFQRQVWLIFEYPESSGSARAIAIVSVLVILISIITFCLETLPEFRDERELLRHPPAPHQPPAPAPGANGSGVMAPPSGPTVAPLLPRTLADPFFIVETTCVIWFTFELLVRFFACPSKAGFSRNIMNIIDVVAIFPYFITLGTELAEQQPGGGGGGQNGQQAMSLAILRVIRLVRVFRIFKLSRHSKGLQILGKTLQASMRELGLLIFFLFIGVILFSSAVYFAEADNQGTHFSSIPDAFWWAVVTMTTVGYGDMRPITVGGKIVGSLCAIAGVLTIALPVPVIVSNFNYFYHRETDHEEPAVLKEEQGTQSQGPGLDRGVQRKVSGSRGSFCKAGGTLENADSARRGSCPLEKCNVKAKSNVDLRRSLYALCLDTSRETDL
Test: Voltage clamp measurement of hKv1.5 block (rested state, use-dependent, rate-dependent) in CHO cells
Format: cell-based
Settings: for Rate-Dpdnt Ratio: 3 Hz vs 1 Hz, last pulse, <1 = rate-dependent; for Use-Dpdnt Ratio: 10th vs 1st pulse @ 1 Hz, <1 = use-dependent; for selective blockade of hKv1.5 (in words): relative to other cardiac K+ channels; for rate-dependent ratio for block of hKv1.5 (bound) / use-dependent ratio for block of hKv1.5 (bound): summary of Table 1
Protocol: A. Measurement of Kv1.5 in CHO cells
Expression of Kv1.5 in CHO Cells
A cDNA encoding Kv1.5, isolated from a human fetal heart library, was subcloned into pcDNAI/Neo (Invitrogen) as a Hind III--Xba I fragment.
CHOKI cells were plated at 2.7×10^4 cells/60 mm dish and incubated at 37° C., in a 5% CO2 environment for three days. Cells were then washed twice and covered with 3 ml of OptiMEM medium (Gibco). Plasmid/DOTAP solution (consisting of […] of Kv1.5 in pcDNAI/Neo and […] DOTAP transfection reagent (Boehringer Mannheim) in 1 ml of OptiMEM) was added dropwise to each plate while swirling. Plates were incubated overnight and the media then changed to 5 mls of F12 (Gibco) supplemented with 10% FBS (Sigma), 1,000 U/ml penicillin […] streptomycin (Gibco), and 2 mM glutamine (Gibco). After two more days, the cells were trypsinized and replated on 100 mm dishes in supplemented F12 media including 1 mg/ml G418 (Gibco). The medium was changed daily until nontransfected cells were killed. Cell lines were grown from individual clones and tested for expression of Kv1.5 using both the ^86 RB efflux assay and voltage clamp protocols. […] These cells were maintained in culture and on each experimental day were freshly isolated by mild trypsinization.
The patch-clamp technique was used to record ionic currents in the whole-cell configuration. Patch pipettes were obtained using a two stage puller from square bore (1.0 mm o.d.) borosillicate capillary tubing. Pipettes were filled with the following solution (in mM/L): 110 K-Gluconate or K-Aspartate, 20 KCl, 5 MgATP, 5 EGTA, 5-10 HEPES, pH 7.2. The electrodes had tip resistances ranging from 3 to 10 Mohm when filled with this solution. Following seal formation, the membrane was ruptured by gentle suction to establish the whole-cell configuration, and negative pressure was maintained on the pipette using a 1 ml gas-tight syringe attached via air tight tubing to the suction port of the microelectrode holder. […] Currents were sampled at 5 kHz using an Axopatch 200 A amplifier (Axon Instruments) or a List EPC-7 clamp amplifier (List Electronic) and were low pass filtered at 1 kHz.
Measurements of Kv1.5 Expressed Currents:
Kv1.5 currents were elicited by 150 ms depolarizing test pulses to +40 mV from a holding potential of -80 mV. The effects of test agents were assessed at steady-state. Data was analyzed as % block from control current amplitude. The amplitude of Kv1.5 was measured as the amplitude of the time-dependent net outward current at the end of the test pulse, relative to the holding current level. […] All experiments were performed at room temperature (22-24° C.).
C. Measurement of Use-Dependent and Rate-Dependent Block.
Pulses were applied in 10 second long trains delivered after 30 second rest intervals at frequencies of 1 Hz (10 pulses) or 3 Hz (30 pulses). Percent block of the current is defined as the % decrease in the current amplitude produced by an agent during a given pulse relative to the control current amplitude for that pulse. Rested-state block is the block of the current during the first pulse in a train following the 30 sec rest period. Use-dependent block is block that occurs to a progessively greater extent with each successive depolarization in a train or sequence of pulses or depolarizations delivered at a given rate or frequency. Thus, during a train of 10 depolarizations at frequency of 1 Hz, use-dependent block is assessed as the ratio of the amount of block for the 10th pulse relative to block for the 1st pulse (rested state block) of the train. Rate-dependent block is block that occurs to a greater extent or preferentially at faster rates of depolarization or heart rates. Thus, rate-dependent block is assessed as the ratio of the amount of block of the current during the last pulse of the 10 sec train at 3 Hz vs. 1 Hz.

[1] = 30 nM, 1st pulse @ 1 Hz, +40 mV from -80 mV, read-out: Average % Block, Rested State, 1st pulse
[2] = 30 nM, 10th pulse @ 1 Hz, read-out: Average % Block, Use-Dpdnt, 10th pulse
[3] = 30 nM, 30th pulse @ 3 Hz, read-out: Average % Block, Rate-Dpdnt, 30th pulse
[4] = 100 nM, 1st pulse @ 1 Hz, read-out: Average % Block, Rested State, 1st pulse
[5] = 100 nM, 10th pulse @ 1 Hz, read-out: Average % Block, Use-Dpdnt, 10th pulse
[6] = 100 nM, 30th pulse @ 3 Hz, read-out: Average % Block, Rate-Dpdnt, 30th pulse
[7] = 300 nM, 1st pulse @ 1 Hz, read-out: Average % Block, Rested State, 1st pulse
[8] = 300 nM, 10th pulse @ 1 Hz, read-out: Average % Block, Use-Dpdnt, 10th pulse

Row | rate-dependent block of hKv1.5 (in words) | use-dependent block of hKv1.5 (in words) | inhibition at 0.03 µM [1] [%] | inhibition at 0.03 µM [2] [%] | inhibition at 0.03 µM [3] [%] | inhibition at 0.1 µM [4] [%] | inhibition at 0.1 µM [5] [%] | inhibition at 0.1 µM [6] [%] | Rate-Dpdnt Ratio (100 nM) | Use-Dpdnt Ratio (100 nM) | inhibition at 0.3 µM [7] [%] | inhibition at 0.3 µM [8] [%] | Use-Dpdnt Ratio (300 nM) | selective blockade of hKv1.5 (in words) | rate-dependent ratio for block of hKv1.5 (bound) | use-dependent ratio for block of hKv1.5 (bound) | SMILES | other results
1 | rate-dependent blockers | use-dependentblockade |  |  |  | 23.3 | 29.6 | 44.9 | 0.66 | 0.79 | 43.5 | 56.6 | 0.77 | selective blockade | < 1 | < 1 | Cc1cc(C)c(CP(=O)(c2ccccc2)c2ccccc2)c(-c2ccc(F)c(C)c2)c1 [B, 2-(Diphenylphosphinylmethyl)-4'-fluoro-3,5,3'-trimethyl-biphenyl] | Rate-Dpdnt Ratio (300 nM): 0.84; inhibition at 0.3 µM (300 nM, 30th pulse @ 3 Hz, read-out: Average % Block, Rate-Dpdnt, 30th pulse): 67.5%
2 | rate-dependent blockers | use-dependentblockade | 6.6 | 15.7 | 38 | 51 | 75.5 | 91.1 | 0.83 | 0.68 |  |  |  | selective blockade | < 1 | < 1 | COc1ccc(-n2nc(Sc3ccc(Cl)cc3)c(C)c(C#N)c2=O)cc1 [C, 6-(4-Chlorophenylthio)-2-(4-methoxyphenyl)-5-methyl-3-oxo-2,3-dihydropyridazine-4-carbonitrile] | Rate-Dpdnt Ratio (30 nM): 0.41; Use-Dpdnt Ratio (30 nM): 0.42
3 |  | use-dependentblockade |  |  |  | 31.1 | 34 |  |  | 0.91 | 52 | 62.5 | 0.83 | selective blockade |  | < 1 | COc1ccc(-n2nc(Sc3ccc(C)cc3)c(C)c(C#N)c2=O)cc1 [D] | 

Row | SMILES | rate-dependent block of hKv1.5 (in words) | use-dependent block of hKv1.5 (in words) | inhibition at 0.03 µM [1] [%] | inhibition at 0.03 µM [2] [%] | inhibition at 0.03 µM [3] [%] | inhibition at 0.1 µM [4] [%] | inhibition at 0.1 µM [5] [%] | inhibition at 0.1 µM [6] [%] | Rate-Dpdnt Ratio (100 nM) | Use-Dpdnt Ratio (100 nM) | inhibition at 0.3 µM [7] [%] | inhibition at 0.3 µM [8] [%] | Use-Dpdnt Ratio (300 nM) | selective blockade of hKv1.5 (in words) | rate-dependent ratio for block of hKv1.5 (bound) | use-dependent ratio for block of hKv1.5 (bound) | other results
4 | CC1CCC(C(C)C)C(P(=O)(c2ccccc2)c2ccccc2)C1 (stereo not drawn) [A, (2-Isopropyl-5-methylcyclohexyl)diphenylphosphine oxide] | rate-dependent blockers; also recorded: strong rate-dependent profile | use-dependentblockade | 21.2 | 38.5 | 57.5 | 32.1 | 64.6 | 82.9 |  |  |  |  |  |  |  |  | use-dependent block of hKv1.5 (in words) (listed as (2-isopropyl-5-methylcyclohexyl) diphenyl-phosphine oxide): strong use-dependent profile
